Source: PubChem BioAssay (NCI)
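GI50 marks 50% less growth. TGI is the concentration that stops growth completely.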

Key:
Assay in all cases: NCI anticancer screen, dose series, 384-well format
HT29 colon = tested on: HT29 colon
M14 melanoma = tested on: M14 melanoma
MALME-3M melanoma = tested on: MALME-3M melanoma
MDA-MB-231 breast = tested on: MDA-MB-231 breast
NCI/ADR-RES ovarian = tested on: NCI/ADR-RES ovarian
PC-3 prostate = tested on: PC-3 prostate
RPMI-8226 leukemia = tested on: RPMI-8226 leukemia
RXF 393 renal = tested on: RXF 393 renal
SK-MEL-2 melanoma = tested on: SK-MEL-2 melanoma
SK-MEL-28 melanoma = tested on: SK-MEL-28 melanoma
SK-MEL-5 melanoma = tested on: SK-MEL-5 melanoma
SK-OV-3 ovarian = tested on: SK-OV-3 ovarian
UO-31 renal = tested on: UO-31 renal

## C=CC(=O)Nc1cccc(Oc2nc(Nc3ccc(N4CCN(C)CC4)cc3)nc3ccsc23)c1
HT29 colon
  GI50: 1740 nM
  TGI: 3160 nM
M14 melanoma
  GI50: 1890 nM
  TGI: 3320 nM
MALME-3M melanoma
  GI50: 1760 nM
  TGI: 3160 nM
MDA-MB-231 breast
  GI50: 1700 nM
  TGI: 3330 nM
NCI/ADR-RES ovarian
  GI50: 1940 nM
  TGI: 4000 nM
PC-3 prostate
  GI50: 1700 nM
  TGI: 3120 nM
RPMI-8226 leukemia
  GI50: 1460 nM
  TGI: 2780 nM
RXF 393 renal
  GI50: 1230 nM
  TGI: 2490 nM
SK-MEL-2 melanoma
  GI50: 1610 nM
  TGI: 2970 nM
SK-MEL-28 melanoma
  GI50: 1740 nM
  TGI: 3140 nM
SK-MEL-5 melanoma
  GI50: 1840 nM
  TGI: 3250 nM
SK-OV-3 ovarian
  GI50: 1570 nM
  TGI: 4190 nM
UO-31 renal
  GI50: 1390 nM
  TGI: 2700 nM
